From patent US4200638A, “Indole derivatives and therapeutically acting drugs” (Omnium Chimique Societe Anonyme, priority 1977, dated 1980)

Columns and labels:
vertebral flow rate = assay: Vertebral flow rate in anesthetized dogs; format: in vivo; conditions: 5.5 mg/kg i.v.
Experimental: (§1) In addition, a substantial increase of vertebral flow rate was noticed upon dogs previously anesthetized with sodium pentobarbital (30 mg/kg i.v.). More particularly a does of 5.5 mg/kg i.v. of N-ethylchanodesethylapovincamine causes a 50 to 100% increase of vertebral flow rate. Said effect on the flow rate is selective, the increase of femoral flow rate being negligible.

Charles River stock mice = assay: Hypobaric anoxia test on mice (survival time); format: in vivo
Experimental: Charles River stock mice of the same sex, weighting about 20±2 g are shared into three lots of 10 animals each. The lots 1 and 2 comprise treated animals, i.e. those having received either a substance to be tested. The third lot comprises control animals.
The compounds examined are administered p.o. 30 minutes before the experiment.
The animals are placed in an atmosphere improverished in oxygen by creating a partial vacuum (190 mm Hg, corresponding to 5.25% oxygen), in about 30 seconds.
The survival time of the mice is measured with a chronometer. Said time is increased by the agents capable of enhancing oxygenation of tissues and more particularly brain oxygenation.
Under the above described conditions, the dose which provides a 50% increase of the average survival time of the animals may be expressed as the 50% effective dose (here abbreviated as ED50).

femoral flow rate = assay: Femoral flow rate in anesthetized dogs; format: in vivo; conditions: 5.5 mg/kg i.v.; dogs anesthetized with sodium pentobarbital (30 mg/kg i.v.)
Experimental: as §1

[1] = Acute toxicity (LD50, method of Lichtfield and Wilcoxon); conditions: mouse, in vivo, mice
Experimental: The compounds of the invention were administered by intragastric or by intravenous route to Charles River stock mice. The lethal doses for 50% (LD50) were determined graphically according to the method of Lichtfield and Wilcoxon (J.Pharmacol.Exp. Therap. […], 96, 99).

CCN1CCc2c3n(c4ccccc24)C(C(=O)OC)=CCC31 (stereo not drawn) [N-ethylchanodesethylapovincamine]
effect on the flow rate (vertebral versus femoral) (vertebral flow rate): selective
ED50 (Charles River stock mice; Mus musculus, po, p.o. 30 minutes before the experiment, 190 mm Hg, corresponding to 5.25% oxygen, read-out: ED50 (dose which provides a 50% increase of the average survival time)): 225 mg/kg
LD50/ED50 (Charles River stock mice; p.o.): 5
increase of femoral flow rate (femoral flow rate): negligible
LD50 ([1]; iv): 55 mg/kg
LD50 ([1]; po, p.o. (intragastric)): 1120 mg/kg
